Data on 18 compounds can be found in US10501479B2, “Benzenesulfonyl-asymmetric ureas and medical uses thereof” (HELSINN HEALTHCARE SA, priority 2016, dated 2019).

Data set [1] deals with T1, GHSR-1a (HEK293/GHSR1a cell line) (Homo sapiens, UniProt Q92847).
T1 construct: expressed in transfected cells; host or cells: HEK293/GHSR1a cell line
In words: Ghrelin antagonist potency (IC50) with calcium FLIPR assay, ghrelin 10 nM. Type of data set: cell-based. The note with it: HEK293/GHSR1a, ghrelin 10 nM, read-out: Activity IC50 (ghrelin antagonist potency). An outline of the steps: (§1)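 In this assay, compound alone assesses agonism, while compound co-added with ghrelin at 10 nM assesses antagonism. In both modes the calcium-dye signal is tracked for 2 min from t=20 sec.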

Data set [2] deals with T1, GHSR-1a (HEK293/GHSR1a cell line). In words: Ghrelin agonist potency (EC50) with calcium FLIPR assay. The note with it: HEK293/GHSR1a, read-out: Activity EC50/EMax: EC50 (ghrelin agonist potency). The format is cell-based. An outline of the steps:
as §1

Data set [3] can be described thus: Metabolic stability in human liver microsomes. The format is in vitro ADME. In a few lines:
(§2)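 Loss of parent over time in microsomal incubations at 37 °C with NADPH regeneration, sampled up to 90 min and read by LC-MS/MS.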
On the technique in general: Liver microsomes are a subcellular fraction often used to study metabolism.

Data set [4] can be described thus: Metabolic stability in mouse liver microsomes. The format is in vitro ADME. An outline of the steps: as §2
The target in data set [5] is T2, recombinant human ghrelin receptor (HEK293/GRLN) (Homo sapiens, UniProt Q92847).
T2 construct: expressed in transfected cells
Nature of the data set: Ghrelin inverse agonist potency (EC50) with IP-1 (IP-One HTRF) assay. The note with it: IP-1 assay, HEK293/GRLN; read-out: Activity EC50 (ghrelin inverse agonist potency). The format is cell-based. In a few lines: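 IP-1 accumulation was measured by HTRF (IP1-d2/Tb-cryptate, 620/665 nm read after 1 hour at room temperature) following 1 hour of compound treatment at 37° C. Cells were HEK293 stably expressing human ghrelin receptor, plated a day earlier on Matrigel. Inverse agonist potency was reported as EC50.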

pEC50, pIC50: −log10 of the molar value.

T2 sequence (Q92847 whole entry): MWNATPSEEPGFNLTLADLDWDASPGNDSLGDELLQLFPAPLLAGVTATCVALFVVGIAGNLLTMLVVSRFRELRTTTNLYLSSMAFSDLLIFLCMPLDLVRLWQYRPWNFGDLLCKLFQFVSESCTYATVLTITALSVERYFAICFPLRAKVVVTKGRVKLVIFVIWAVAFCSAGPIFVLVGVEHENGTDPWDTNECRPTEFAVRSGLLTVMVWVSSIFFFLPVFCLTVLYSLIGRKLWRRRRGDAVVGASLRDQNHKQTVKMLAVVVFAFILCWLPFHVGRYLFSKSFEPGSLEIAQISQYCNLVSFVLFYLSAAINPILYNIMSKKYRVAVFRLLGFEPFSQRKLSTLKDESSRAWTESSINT
T1 sequence (Q92847 whole entry): as above

By pIC50 is commonly meant the IC50 on a negative log10 scale, so that one unit is a factor of ten. `C[C@@H](NC(=O)Nc1ccc(S(=O)(=O)Cc2cc(F)c3c(c2)CNC3)cc1)c1ccccc1.Cl` [H1394, (R)-1-(4-(((7-fluoroisoindolin-5-yl)methyl)sulfonyl)phenyl)-3-(1-phenylethyl)urea]: the pIC50 in data set [1] was 7.28. In addition, the results for the pEC50 in data set [2] and in data set [5] were less than 4.52 and 8.11, respectively. Also, the “Metabolic Stability Study H = human” value in data set [3] worked out at 67.4 µL/min/mg. In addition, the “Metabolic Stability Study M = mouse” value in data set [4] stood at 182.5 µL/min/mg.
On to `C[C@@H](NC(=O)Nc1ccc(S(=O)(=O)Cc2ccc3c(c2F)CNC3)cc1)c1ccccc1` [H1396, (R)-1-(4-(((4-fluoroisoindolin-5-yl)methyl)sulfonyl)phenyl)-3-(1-phenylethyl)urea], for which the pIC50 in data set [1] is 7.97. Further, the figures for the pEC50 in data set [2] and in data set [5] were less than 4.52 and 8.89, respectively. Also, the “Metabolic Stability Study H = human” value in data set [3] worked out at 62.5 µL/min/mg. Besides, the “Metabolic Stability Study M = mouse” value in data set [4] stood at 330.4 µL/min/mg.
Taken in the same sequence, the figures for `CC1c2ccccc2CCN1C(=O)Nc1ccc(S(=O)(=O)Cc2ccc3c(c2)CNC3)cc1` (stereo not drawn) [H1397, N-(4-((isoindolin-5-ylmethyl)sulfonyl)phenyl)-1-methyl-3,4-dihydroisoquinoline-2(1H)-carboxamide] were 5.96, less than 4.52, 7.17, 35.1 µL/min/mg and 32 µL/min/mg.
For the compound `COc1cc(S(=O)(=O)Cc2ccc3c(c2)CNC3)ccc1NC(=O)N(C)C(C)c1ccccc1` (stereo not drawn) [H1398, 3-(4-((isoindolin-5-ylmethyl)sulfonyl)-2-methoxyphenyl)-1-methyl-1-(1-phenylethyl)urea], in data set [1], the pIC50 is 6.20. Also, the pEC50 is less than 4.52 in data set [2] and 7.20 in data set [5]. Further, the “Metabolic Stability Study H = human” value in data set [3] came out at 52.9 µL/min/mg. Also, the “Metabolic Stability Study M = mouse” value in data set [4] is 80.5 µL/min/mg.
For the compound `CC1Cc2cc(CS(=O)(=O)c3ccc(NC(=O)NC(C)c4ccccc4)cc3)ccc2CN1` (stereo not drawn) [H1406, 1-(4-(((3-methyl-1,2,3,4-tetrahydroisoquinolin-6-yl)methyl)sulfonyl)phenyl)-3-(1-phenylethyl)urea], the pIC50 in data set [1] is 7.07. The results for the pEC50 in data set [2] and in data set [5] were less than 4.52 and 8.10, respectively. Besides, the “Metabolic Stability Study H = human” value in data set [3] came to 15 µL/min/mg. Also, the “Metabolic Stability Study M = mouse” value in data set [4] amounted to 22.2 µL/min/mg.
With `CC(NC(=O)Nc1ccc(S(=O)(=O)Cc2ccc3c(c2)CC(C)N(C)C3)cc1)c1ccccc1` (stereo not drawn) [H1407, 1-(4-(((2,3-dimethyl-1,2,3,4-tetrahydroisoquinolin-6-yl)methyl)sulfonyl)phenyl)-3-(1-phenylethyl)urea], the pIC50 in data set [1] is 7.90. The pEC50 in data set [2] is less than 4.52; in data set [5] it was 8.84. The “Metabolic Stability Study H = human” value in data set [3] was found to be 144.4 µL/min/mg. For the same compound, the “Metabolic Stability Study M = mouse” value in data set [4] worked out at 84.1 µL/min/mg.
As for `CC(NC(=O)Nc1ccc(S(=O)(=O)Cc2ccc3c(c2F)CNC3)cc1)c1c(F)cccc1F` (stereo not drawn) [H1410], the pIC50 in data set [1] is 7.49. Also, the results for the pEC50 in data set [2] and in data set [5] were less than 4.52 and 7.88, respectively. In data set [3], the “Metabolic Stability Study H = human” value stood at 73.3 µL/min/mg. In addition, in data set [4], the “Metabolic Stability Study M = mouse” value worked out at 358.6 µL/min/mg.
Taken in the same sequence, the figures for `COc1cc(S(=O)(=O)Cc2ccc3c(c2)CNC3)ccc1NC(=O)NC(C)c1c(F)cccc1F` (stereo not drawn) [H1412, 1-(1-(2,6-difluorophenyl)ethyl)-3-(4-((isoindolin-5-ylmethyl)sulfonyl)-2-methoxyphenyl)urea] were 7.80, less than 4.52, 8.37, 22.5 µL/min/mg and 122.4 µL/min/mg.
On to `COc1cc(S(=O)(=O)Cc2ccc3c(c2)CN(C)C3)ccc1NC(=O)NC(C)c1cccc2ccccc12` (stereo not drawn) [H1425, 1-(2-methoxy-4-(((2-methylisoindolin-5-yl)methyl)sulfonyl)phenyl)-3-(1-(naphthalen-1-yl)ethyl)urea], for which the pIC50 in data set [1] is 8.09. The pEC50 in data set [2] was less than 4.52; in data set [5], 8.74. Moreover, in data set [3], the “Metabolic Stability Study H = human” value stood at 310.0 µL/min/mg. Besides, in data set [4], the “Metabolic Stability Study M = mouse” value was 141.5 µL/min/mg.
Taken in the same sequence, the figures for `COc1cc(S(=O)(=O)Cc2ccc3c(c2)CN(C)C3)ccc1NC(=O)NC(C)c1ccccc1F` (stereo not drawn) [H1426, 1-(1-(2-fluorophenyl)ethyl)-3-(2-methoxy-4-(((2-methylisoindolin-5-yl)methyl)sulfonyl)phenyl)urea] were 7.28, less than 4.52, 8.47, 77.3 µL/min/mg and 80.6 µL/min/mg.
Turning to `COc1cc(S(=O)(=O)Cc2ccc3c(c2)CN(C)C3)ccc1NC(=O)NC(C)c1cccc(Cl)c1Cl` (stereo not drawn) [H1427, 1-(1-(2,3-dichlorophenyl)ethyl)-3-(2-methoxy-4-(((2-methylisoindolin-5-yl)methyl)sulfonyl)phenyl)urea], the pIC50 in data set [1] was 8.42. Besides, the pEC50 in data set [2] is less than 4.52; in data set [5], 9.15. Also, the “Metabolic Stability Study H = human” value in data set [3] is 58.8 µL/min/mg. In addition, in data set [4], the “Metabolic Stability Study M = mouse” value worked out at 82.1 µL/min/mg.
`COc1cc(S(=O)(=O)Cc2ccc3c(c2)CCN(C)C3)ccc1NC(=O)NC(C)c1cccc(Cl)c1Cl` (stereo not drawn) [H1428, 1-(1-(2,3-dichlorophenyl)ethyl)-3-(2-methoxy-4-(((2-methyl-1,2,3,4-tetrahydroisoquinolin-6-yl)methyl)sulfonyl)phenyl)urea]: in data set [1], the pIC50 is 8.48. Besides, the pEC50 in data set [2] is less than 4.52; in data set [5], 9.30. Moreover, the “Metabolic Stability Study H = human” value in data set [3] turned out to be 69.3 µL/min/mg. Further, the “Metabolic Stability Study M = mouse” value in data set [4] came out at 194.8 µL/min/mg.
Taken in the same sequence, the figures for `CC(NC(=O)Nc1ccc(S(=O)(=O)Cc2ccc3c(c2)CN(C)C3)cc1)c1c(F)cccc1F` (stereo not drawn) [H1429, 1-(1-(2,6-difluorophenyl)ethyl)-3-(4-(((2-methylisoindolin-5-yl)methyl)sulfonyl)phenyl)urea] were 6.80, less than 4.52, 8.14, 65.2 µL/min/mg and 63.6 µL/min/mg.
With `COc1cc(S(=O)(=O)Cc2ccc3c(c2)CC(C)N(C)C3)ccc1NC(=O)NC(C)c1cccc(Cl)c1Cl` (stereo not drawn) [H1431, 1-(1-(2,3-dichlorophenyl)ethyl)-3-(4-(((2,3-dimethyl-1,2,3,4-tetrahydroisoquinolin-6-yl)methyl)sulfonyl)-2-methoxyphenyl)urea], the pIC50 in data set [1] is 8.34. The values for the pEC50 in data set [2] and in data set [5] were less than 4.52 and 9.18, respectively. Also, in data set [3], the “Metabolic Stability Study H = human” value turned out to be 99.7 µL/min/mg. The “Metabolic Stability Study M = mouse” value in data set [4] worked out at 135.7 µL/min/mg.
Turning to `CC(NC(=O)Nc1ccc(S(=O)(=O)Cc2ccc3c(c2)CNC3)cc1)c1cc(F)cc(F)c1` (stereo not drawn) [H1445, 1-(1-(3,5-difluorophenyl)ethyl)-3-(4-((isoindolin-5-ylmethyl)sulfonyl)phenyl)urea], in data set [1], the pIC50 was 7.62. Further, the pEC50 in data set [2] was less than 4.52; in data set [5], 8.41. Also, the “Metabolic Stability Study H = human” value in data set [3] was 19.4 µL/min/mg. In addition, in data set [4], the “Metabolic Stability Study M = mouse” value was determined as 17.3 µL/min/mg.
For `CC(NC(=O)Nc1ccc(S(=O)(=O)Cc2ccc3c(c2)CN(C)C3)cc1)c1cc(F)cc(F)c1` (stereo not drawn) [H1446, 1-(1-(3,5-difluorophenyl)ethyl)-3-(4-(((2-methylisoindolin-5-yl)methyl)sulfonyl)phenyl)urea], the pIC50 in data set [1] is 7.02. For the same compound, the pEC50 in data set [2] was less than 4.52; in data set [5], 8.05. In data set [3], the “Metabolic Stability Study H = human” value was 177.6 µL/min/mg. The “Metabolic Stability Study M = mouse” value in data set [4] was found to be 58.5 µL/min/mg.
Consider `Cc1cc(S(=O)(=O)Cc2ccc3c(c2)CN(C)C3)ccc1NC(=O)NC(C)c1ccccc1` (stereo not drawn) [H1447, 1-(2-methyl-4-(((2-methylisoindolin-5-yl)methyl)sulfonyl)phenyl)-3-(1-phenylethyl)urea], for which the pIC50 in data set [1] was 7.00. In addition, the results for the pEC50 in data set [2] and in data set [5] were less than 4.52 and 8.19, respectively. The “Metabolic Stability Study H = human” value in data set [3] came out at 72.5 µL/min/mg. The “Metabolic Stability Study M = mouse” value in data set [4] stood at 42.6 µL/min/mg.
Taken in the same sequence, the figures for `COc1cccc(F)c1C(C)NC(=O)Nc1ccc(S(=O)(=O)Cc2ccc3c(c2)CN(C)C3)cc1` (stereo not drawn) [H1454, 1-(1-(2-fluoro-6-methoxyphenyl)ethyl)-3-(4-(((2-methylisoindolin-5-yl)methyl)sulfonyl)phenyl)urea] were 7.50, less than 4.52, 8.21, 259.9 µL/min/mg and 193.3 µL/min/mg.
